The subject of assay [1] is human peripheral blood mononuclear cells. Nature of the assay: Cytokine profiling in LPS-stimulated hPBMC. The format is cell-based. Conditions: for IL-10 (% of control) / MCP-1 (% of control) / RANTES (% of control): 0.1 μM concentration; for IC50: Homo sapiens, PBMC, 18 h, LPS 1 ng/ml, 18 hours. How it is done: Fifty ml human buffy coat was aliquoted 25 ml each into two 50 ml conical tubes and 25 ml sterile HBSS was added to each conical tube. The tubes were gently mixed by inverting. Fifteen ml of room temperature Ficoll-Paque Plus (GE Healthcare (location); cat #17-1440-02) was aliquoted into four 50 ml conical tubes. Then 25 ml of the Buffy coat/IBSS mixture was layered gently and slowly on top of the Ficoll. The samples were centrifuged at 450 rpm for 35 minutes. The top layered containing plasma was pipetted off and discarded. The interface containing mononuclear cells was transferred into two 50 ml conical tubes. Both conical tubes were filled to total volume of 50 ml with HBSS and centrifuged at 1200 rpm for 10 minutes. The cells were washed again in HBSS and spun at 1000 rpm for 10 minutes. Cell pellet was resuspended with 20 ml RPMI complete medium (RPMI/5% human sera/1× pen/strep/glut) and counted.
One hundred μl (2×10^6/ml) of hPBMCs were added to each well of a 96 well flat-bottom plate (final cell count=2×10^5/well) and incubated at 37° C. for 1 hour. Twenty μl (10×) compound was added to each test well and twenty μl medium containing 2.5% DMSO was added to each control well ([DMSO]final=0.25%) and plate was incubated for 1 hour at 37° C. Cells were then stimulated with 80 μl of 2.5 ng/ml LPS ([LPS]final=1 ng/ml) and incubated for 18 hours at 37° C. Fifty μl supernatant from each well was transferred into 3 new round-bottomed 96 well plates and stored at −20° C. for Luminex analysis. Duplicate wells were performed for each sample.
Supernatant samples were analyzed for cytokines in multiplex format according to the manufacturer's instructions (Millipore, Billerica, Ma 01821) using a Luminex IS100 instrument. IL-12 and GM-CSF analyses were done in a two-plex format using neat supernatants while all other cytokines were done in a multiplex format using supernatants diluted 1:20. Data analysis was performed using Upstate Beadview software. […] The IC50 were performed using GraphPad Prism v5.00. The data values represent the mean+SEM (standard error of the mean) of n (number of experiments in duplicate).

In assay [2] the test system is anti-CD3-stimulated human T cells. In words: Cytokine production by T cells (multi-plex CBA). The format is cell-based. As to conditions: for IL-10 production at high concentration: >10 nM; for concentrations that enhanced IL-2, IL-3, IL-5, IL-10, IL-13, GM-CSF, IFN-γ, TNF-α and RANTES: for compound I RANTES at 10 nM. How it is done:
T cells were isolated from buffy coat by negative selection using the RosetteSep® T Cell Enrichment Cocktail. The manufacturer's procedures were followed accordingly. All 96-well plates were pre-coated with […] anti-human CD3 antibody in 100 μl 1×PBS for 4 hours at 37° C. The plates were washed three times with RPMI-1640 Complete Media prior to the T cell assay. T cells were then plated in CD3 pre-coated plates at a density of 2.5×10^5 cells/well in 180 μl RPMI-1640 Complete Media. The cells were treated with 20 μl 10× titrated compounds at 10, 1, 0.1, 0.01, 0.001, 0.0001 and 0.00001 μM. Final DMSO concentrations were 0.25%. The plates were incubated for 48 hours at 37° C., 5% CO2. After 48 hours, the supernatants were harvested and tested by a multi-plex cytometric bead array (CBA) assay for the following cytokines/chemokines: IL-2, IL-3, IL-5, IL-10, IL-13, IL-15, IL-17a, GM-CSF, G-SCF, IFN-γ, TNF-α and RANTES. The CBA plates were analyzed on the Luminex IS100 instrument. Data from each donor was graphed using GraphPad Prism 5.0 software and expressed as mean pg/mL±SEM and % of DMSO control±SEM.

The test system of assay [3] is U87 Glioblastoma xenograft. In words: U87 Glioblastoma xenograft model. The format is in vivo, mouse. As to conditions: for U87 tumor growth: 30 mg/kg qd. How it is done:
Compounds I, I-R, and I-S were tested in U87 Glioblastoma xenograft model, and the results are depicted in FIG. 25.

The next assay concerns rat aorta. Nature of the assay: Rat aorta assay. The format is cell-based. The procedure:
Compounds I, I-R, and I-S were tested in various angiogenesis inhibition assays.

Assay [4] deals with NCI-H929 Multiple Myeloma xenograft. Nature of the assay: NCI-H929 Multiple Myeloma xenograft model. The format is in vivo, mouse. As to conditions: for H929 tumor growth: mouse, in vivo; for tumor growth inhibition: day 19. The procedure: Compounds I, I-R, and I-S were tested in NCI-H929 Multiple Myeloma xenograft model, and the results are depicted in FIG. 24.
The subject of a further assay is NK cells. In words: NK IgG-induced IFN-γ assay. The format is cell-based, human. Conditions: immobilized IgG and IL-2 stimulation; 7 donors. The source says: NK cells from healthy donors were isolated from buffy coat blood by negative selection using the RosetteSep NK cell enrichment cocktail (Stem Cell Technologies, Vancouver, BC) prior to Ficoll-Hypaque (Fisher Scientific Co LLC, PA) density gradient centrifugation following the manufacturers' instructions. CD56+NK cells were isolated to ˜85% purity, as determined by flow cytometry (BD Biosciences, CA).
NK IgG-induced Interferon-Gamma (IFN-γ) Assay: Ninety-six-well flat-bottom plates were coated with 100 µg/mL of human IgG (Sigma) overnight at 4° C. The next day, unbound IgG was washed away with cold 1×PBS. NK cells were then plated in the IgG-coated 96-well plates at 2×10^5 cells per well in 180 μL RPMI-1640 Media and 10 ng/mL of rhIL-2 (R & D Systems, MN) was added. Test compounds were added in a volume of 20 μL DMSO. Final concentrations of test compounds were […]. Final DMSO concentrations were […]. After 48 hours, the supernatants were harvested and analyzed by ELISA for IFN-γ production.
Data used to determine the test compounds to enhance NK cell IFN-γ production in response to immobilized IgG and rhIL-2 stimulation was analyzed for each donor using GraphPad Prism v5.0 software.

In assay [5] the target is T1, endogeneous human CRBN (U266 extract) (Homo sapiens, UniProt Q96SW2).
T1 construct: endogenous in cells; host or cells: U266 human multiple myeloma cells (NP-40 lysate)
In words: Thalidomide affinity bead competition assay. The format is binding. How it is done:
Affinity beads coupled to a thalidomide acid analog were incubated with the U266 extracts and, after extensive washing of the beads, the bound proteins were eluted. CRBN binding to the thalidomide-coupled affinity beads was determined by quantitative CRBN immunoblot determination.

Where [6] appears, read: read-out: GM-CSF production IC50.
The mark [7] stands for this setting: read-out: IL-1β production IC50.
Setting [8] is: read-out: MIP-1α production IC50.
The mark [9] stands for this setting: read-out: MIP-1β production IC50.
Setting [10] is: read-out: TNF-α production IC50.

Where two headings read alike, the source gives them in different places.

For the molecule `O=C1CCC(N2Cc3c(OCc4ccc(CN5CCOCC5)cc4)cccc3C2=O)C(=O)N1` (racemic) [Compound I, 3-(4-((4-(morpholinomethyl)benzyl)oxy)-1-oxoisoindolin-2-yl)piperidine-2,6-dione], the “IL-10 (% of control)” value in assay [1] is 372 % of control. For the same molecule, the “MCP-1 (% of control)” value in assay [1] is 208 % of control. The “RANTES (% of control)” value in assay [1] is on record as 153 % of control. The IC50 was 9.2 nM in assay [1] (setting [6]); 0.85 nM in assay [1] (setting [7]); 10 nM in assay [1] (read-out: IL-6 production IC50); over 10000 nM in assay [1] (read-out: IL-8 production IC50); 2.6 nM in assay [1] (read-out: MDC production IC50); 190 nM in assay [1] (setting [8]). The IC50 is over 10000 nM in assay [1] (setting [9]) and 1.8 nM in assay [1] (setting [10]). Moreover, the “concentration at which enhancement of IL-5 production peaked” value in assay [2] came to 1 nM. In addition, the “GM-CSF production, times those of control cells” value (“GM-CSF production, times those” below) is given as 3 times in assay [2] (1 nM) and 6 times in assay [2] (10 nM). Further, the entries for the “IL-2 production, times those of control cells” value (“IL-2 production, times those” below) in assay [2] (1 nM) and in assay [2] (10 nM) were 7 times and 22 times, respectively. Further, the “IL-5 production, times over that of control cells” value in assay [2] (1 nM) amounted to 6 times. Further, the “IL-13 production, times those of control cells” value (from here on “IL-13 production, times those”) in assay [2] (1 nM) was 5 times; in assay [2] (10 nM) it was 6.5 times. Moreover, in assay [2] (10 nM), the IL-5 production enhancement is listed as at most 2 fold. For the same molecule, the “IL-10 production at high concentration” value in assay [2] is reported as “inhibited”. For the same molecule, in assay [3], the U87 tumor growth result is “significantly inhibited U87 tumor growth”. This molecule also displayed a tumor growth inhibition in assay [3] (30 mg/kg, day 48) of over 80%. Also, in the assay on rat aorta, the “anti-angiogenic activity in rat aorta assay” value (“anti-angiogenic activity” below) is on record as “modest anti-angiogenic activity”. Further, in assay [4], the H929 tumor growth entry is given as “significantly inhibited H929 tumor growth in a dose-dependent manner”.

As for `O=C1CC[C@@H](N2Cc3c(OCc4ccc(CN5CCOCC5)cc4)cccc3C2=O)C(=O)N1` [Compound I-R, (R)-3-(4-((4-(morpholinomethyl)benzyl)oxy)-1-oxoisoindolin-2-yl)piperidine-2,6-dione], the “NK cell IFN-γ production” value in the assay on NK cells was “slightly more active than compound I”. The “IL-10 (% of control)” value in assay [1] was 442 % of control. For the same molecule, the “MCP-1 (% of control)” value in assay [1] was 223 % of control. The “RANTES (% of control)” value in assay [1] is on record as 151 % of control. Further, the IC50 was 39 nM in assay [1] (setting [6]); 6.2 nM in assay [1] (setting [7]); 83 nM in assay [1] (read-out: IL-6 production IC50); over 10000 nM in assay [1] (read-out: IL-8 production IC50); 12 nM in assay [1] (read-out: MDC production IC50); over 10000 nM in assay [1] (setting [9]). Also, in assay [1] (setting [10]), the IC50 was determined as 9.5 nM. The “GM-CSF production, times those” value in assay [2] (10 nM) is given as 6 times. In addition, in assay [2] (10 nM), the “IL-2 production, times those” value was 15 times. Moreover, the “IL-13 production, times those” value in assay [2] (10 nM) amounted to 7 times. In addition, the IL-10 production enhancement in assay [2] (0.01 to 1 nM) was about 6 fold. Besides, the “IL-5 production, times that of control cells” value in assay [2] (1 to 100 nM) was “up to 2.5 times”. In addition, the “IL-10 production at high concentration” value in assay [2] is reported as “inhibited”. In assay [2], the “concentrations that enhanced IL-2, IL-3, IL-5, IL-10, IL-13, GM-CSF, IFN-γ, TNF-α and RANTES” value is listed as at least 1 nM. The “anti-angiogenic activity” value with rat aorta was “modest anti-angiogenic activity”.

As for `O=C1CC[C@H](N2Cc3c(OCc4ccc(CN5CCOCC5)cc4)cccc3C2=O)C(=O)N1` [Compound I-S, (S)-3-(4-((4-(morpholinomethyl)benzyl)oxy)-1-oxoisoindolin-2-yl)piperidine-2,6-dione], in the assay with NK cells, the “NK cell IFN-γ production” value was “slightly more active than compound I”. The “IL-10 (% of control)” value in assay [1] is 379 % of control. Also, the “MCP-1 (% of control)” value in assay [1] is recorded as 233 % of control. Further, the “RANTES (% of control)” value in assay [1] is 153 % of control. The IC50 in assay [1] (setting [6]) is 2.2 nM; in assay [1] (setting [7]), 0.46 nM; in assay [1] (read-out: IL-6 production IC50), 3.8 nM; in assay [1] (read-out: IL-8 production IC50) it was over 10000 nM; in assay [1] (read-out: MDC production IC50), 2.1 nM; in assay [1] (setting [8]) it was 28 nM. The IC50 is over 10000 nM in assay [1] (setting [9]) and 0.59 nM in assay [1] (setting [10]). In addition, the “concentration at which enhancement of IL-5 production peaked” value in assay [2] came out at 1 nM. Also, the “IL-5 production, times over that of control cells” value in assay [2] (1 nM) amounted to 6 times. Moreover, the “GM-CSF production, times those” value in assay [2] (10 nM) was found to be 5 times. Besides, the “IL-2 production, times those” value in assay [2] (10 nM) is reported as 18 times. For the same molecule, the “IL-13 production, times those” value in assay [2] (10 nM) amounted to 7 times. Besides, the “IL-10 production at high concentration” value in assay [2] is reported as “inhibited”. Further, the “concentrations that enhanced IL-2, IL-3, IL-5, IL-10, IL-13, GM-CSF, IFN-γ, TNF-α and RANTES” value in assay [2] was at least 1 nM. Moreover, the tumor growth inhibition entry in assay [3] (15 mg/kg, day 43, another study) is listed as “about 47%”; in assay [3] (30 mg/kg, day 48), “about 60%”; in assay [4] (0.3 mg/kg), 34%; in assay [4] (3 mg/kg) it was 67%; in assay [4] (30 mg/kg) it was 87%. The U87 tumor growth result in assay [3] is reported as “significantly inhibited U87 tumor growth”. Besides, the “anti-angiogenic activity” value in the assay on rat aorta was “modest anti-angiogenic activity”. In addition, the “binding to CRBN” value in assay [5] was “binds to endogeneous human CRBN”. In assay [4], the H929 tumor growth result is listed as “significantly inhibited H929 tumor growth in a dose-dependent manner”.

The values are drawn from patent US20260007679A1, “METHODS OF TREATING CANCER USING 3-(4-((4-(MORPHOLINOMETHYL)BENZYL)OXY)-1-OXOISOINDOLIN-2-YL)PIPERIDINE-2,6-DIONE” (Celgene Corporation, priority 2012, published 2026).
